Reference: publication PMC8516330 (The AAPS Journal, 2021)

Experiment: Encapsulation efficiency of liposomes and lipodisks by RP-HPLC
Conditions: for Change of EE in lipodisks compared with liposomes: curcumin D/L 0.01, acyclovir D/L 0.03; for EE% (encapsulation efficiency), D/L 0.1: D/L ratio 0.1 (w/w), N = 3

Change of EE in lipodisks compared with liposomes	Encapsulation efficiency, liposomes D/L 0.03 ([…], D/L ratio 0.03, passive loading)	EE% (encapsulation efficiency), D/L 0.1 ([…])	Encapsulation efficiency, lipodisks D/L 0.03 (lipodisks (62% DSPE-PEG2000), D/L ratio 0.03)	Encapsulation efficiency, lipodisks D/L 0.01 (D/L ratio 0.01)	Encapsulation efficiency, liposomes D/L 0.01 (liposomes, D/L ratio 0.01)	Compound
did not significantly increase	–	–	–	–	–	Nc1nc2c(ncn2COCCO)c(=O)[nH]1 [Acyclovir, acyclovir]
–	2.3%	1.49%	9.7%	27.46%	–	C[C@@H]1C[C@H]2[C@@H]3CCC4=CC(=O)C=C[C@]4(C)[C@@]3(F)[C@@H](O)C[C@]2(C)[C@@]1(O)C(=O)CO [Dexamethasone, dexamethasone]
remained constant	–	11.41%	–	~ 82.4%	~ 82.4%	COc1cc(/C=C/C(=O)CC(=O)/C=C/c2ccc(O)c(OC)c2)ccc1O [Curcumin, curcumin]
